How the values were obtained:
Format in all cases: in vivo
Details in all cases: applied at 1000 g/h, evaluated after 13 days
Setaria faberi (SETFA) [1] = test: Herbicidal glasshouse test, pre-emergence, SETFA
[2] = tested on: Echinochloa crus-galli (ECHCG); test: Herbicidal glasshouse test, pre-emergence, ECHCG
In short: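 Echinochloa crus-galli seeds were sown in standard soil in pots and grown for one day in a glasshouse at 24/16° C. day/night, 14 hours light and 65% humidity. Pre-emergence spraying used an aqueous solution of the active ingredient in acetone/water (50:50) with 0.5% Tween 20. Damage was scored after 13 days on a five point scale.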

[3] = tested on: Alopecurus myosuroides (ALOMY); test: Herbicidal glasshouse test, post-emergence, ALOMY
Solanum nigrum (SOLNI) [4] = test: Herbicidal glasshouse test, pre-emergence, SOLNI
In short: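 Seeds of Solanum nigrum were sown in pots of standard soil and kept one day in a glasshouse at 24/16° C. day/night, 14 hours light and 65% humidity. For the pre-emergence treatment they were then sprayed with an aqueous solution of the active ingredient formulated in acetone/water (50:50) containing 0.5% Tween 20. Plant damage was rated after 13 days.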

Setaria faberi (SETFA) [5] = test: Herbicidal glasshouse test, post-emergence, SETFA
In short: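 Setaria faberi seeds were sown in standard soil in pots and grown for 8 days in a glasshouse at 24/16° C. day/night, 14 hours light and 65% humidity. The seedlings were then sprayed post-emergence with the active ingredient in acetone/water (50:50) containing 0.5% Tween 20. Afterwards they were kept under the same conditions, watered twice daily, and scored for percentage damage on a five point scale.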

[6] = tested on: Echinochloa crus-galli (ECHCG); test: Herbicidal glasshouse test, post-emergence, ECHCG
In short: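 Echinochloa crus-galli (ECHCG) seeds were sown in standard soil in pots and grown for 8 days in a glasshouse at 24/16° C. day/night, 14 hours light and 65% humidity. The young plants were then sprayed post-emergence with the active ingredient in acetone / water (50:50) containing 0.5% Tween 20. Damage was scored after 13 days.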

Solanum nigrum (SOLNI) [7] = test: Herbicidal glasshouse test, post-emergence, SOLNI
[8] = tested on: Alopecurus myosuroides (ALOMY); test: Herbicidal glasshouse test, pre-emergence, ALOMY
[9] = tested on: Ipomoea hederacea (IPOHE); test: Herbicidal glasshouse test, post-emergence, IPOHE
[10] = tested on: Amaranthus retoflexus (AMARE); test: Herbicidal glasshouse test, post-emergence, AMARE
In short: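 Amaranthus retoflexus (AMARE) seeds were sown in pots of standard soil and grown in a glasshouse at 24/16° C. day/night, 14 hours light and 65% humidity for 8 days. The plants were then sprayed post-emergence with an aqueous solution of the active ingredient in acetone/water (50:50) with 0.5% Tween 20. Damage was scored after 13 days.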

[11] = tested on: Amaranthus retoflexus (AMARE); test: Herbicidal glasshouse test, pre-emergence, AMARE
In short: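 Amaranthus retoflexus seeds were sown in pots of standard soil and kept one day in a glasshouse at 24/16° C. (day/night), 14 hours light and 65% humidity. They were then sprayed pre-emergence with the active ingredient in acetone/water (50:50) containing 0.5% Tween 20. Plants grew under the same conditions, watered twice daily, and percentage damage was scored after 13 days.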

[12] = tested on: Ipomoea hederacea (IPOHE); test: Herbicidal glasshouse test, pre-emergence, IPOHE

Cn1nnnc1NC(=O)c1nn(C)c(=O)n(Cc2ccc(F)cc2F)c1=O [Compound 1.055]
5 (5=80-100%): PRE Application ECHCG, percentage damage (five point scale) [2] | POST Application ALOMY, percentage damage (five point scale) [3] | PRE Application SOLNI, percentage damage (five point scale) (Solanum nigrum (SOLNI) [4]) | POST Application SOLNI, percentage damage (five point scale) (Solanum nigrum (SOLNI) [7]) | PRE Application ALOMY, percentage damage (five point scale) [8] | POST Application IPOHE, percentage damage (five point scale) [9] | POST Application AMARE, percentage damage (five point scale) [10] | PRE Application AMARE, percentage damage (five point scale) [11] | PRE Application IPOHE, percentage damage (five point scale) [12]
4 (4=60-79%): POST Application ECHCG, percentage damage (five point scale) [6]
1 (1=0-19%): PRE Application SETFA, percentage damage (five point scale) (Setaria faberi (SETFA) [1]) | POST Application SETFA, percentage damage (five point scale) (Setaria faberi (SETFA) [5])

Cn1nnnc1NC(=O)c1nn(C)c(=O)n(CCC(F)(F)F)c1=O [Compound 1.094]
5 (5=80-100%): PRE Application SETFA, percentage damage (five point scale) (Setaria faberi (SETFA) [1]) | PRE Application ECHCG, percentage damage (five point scale) [2] | POST Application ALOMY, percentage damage (five point scale) [3] | PRE Application SOLNI, percentage damage (five point scale) (Solanum nigrum (SOLNI) [4]) | POST Application SETFA, percentage damage (five point scale) (Setaria faberi (SETFA) [5]) | POST Application ECHCG, percentage damage (five point scale) [6] | POST Application SOLNI, percentage damage (five point scale) (Solanum nigrum (SOLNI) [7]) | PRE Application ALOMY, percentage damage (five point scale) [8] | POST Application IPOHE, percentage damage (five point scale) [9] | POST Application AMARE, percentage damage (five point scale) [10] | PRE Application AMARE, percentage damage (five point scale) [11] | PRE Application IPOHE, percentage damage (five point scale) [12]

Cn1nnnc1NC(=O)c1nn(C)c(=O)n(-c2ccc(C(C)(C)C)cc2)c1=O [Compound 1.040]
3 (3=40-59%): PRE Application IPOHE, percentage damage (five point scale) [12]
5 (5=80-100%): PRE Application SETFA, percentage damage (five point scale) (Setaria faberi (SETFA) [1]) | PRE Application ECHCG, percentage damage (five point scale) [2] | PRE Application SOLNI, percentage damage (five point scale) (Solanum nigrum (SOLNI) [4]) | POST Application SETFA, percentage damage (five point scale) (Setaria faberi (SETFA) [5]) | POST Application ECHCG, percentage damage (five point scale) [6] | POST Application SOLNI, percentage damage (five point scale) (Solanum nigrum (SOLNI) [7]) | PRE Application ALOMY, percentage damage (five point scale) [8] | POST Application AMARE, percentage damage (five point scale) [10] | PRE Application AMARE, percentage damage (five point scale) [11]
4 (4=60-79%): POST Application ALOMY, percentage damage (five point scale) [3] | POST Application IPOHE, percentage damage (five point scale) [9]

CCCCn1c(=O)c(C(=O)Nc2nncn2C)nn(C)c1=O [Compound 6.003]
1 (1=0-19%): POST Application ECHCG, percentage damage (five point scale) [6] | PRE Application ALOMY, percentage damage (five point scale) [8]
4 (4=60-79%): PRE Application ECHCG, percentage damage (five point scale) [2] | POST Application SOLNI, percentage damage (five point scale) (Solanum nigrum (SOLNI) [7])
2 (2=20-39%): POST Application SETFA, percentage damage (five point scale) (Setaria faberi (SETFA) [5])
3 (3=40-59%): POST Application ALOMY, percentage damage (five point scale) [3]
5 (5=80-100%): PRE Application SETFA, percentage damage (five point scale) (Setaria faberi (SETFA) [1]) | PRE Application SOLNI, percentage damage (five point scale) (Solanum nigrum (SOLNI) [4]) | POST Application IPOHE, percentage damage (five point scale) [9] | POST Application AMARE, percentage damage (five point scale) [10] | PRE Application AMARE, percentage damage (five point scale) [11] | PRE Application IPOHE, percentage damage (five point scale) [12]

Cn1nnnc1NC(=O)c1nn(C)c(=O)n(-c2cc(F)cc(F)c2)c1=O [Compound 1.042]
5 (5=80-100%): PRE Application SETFA, percentage damage (five point scale) (Setaria faberi (SETFA) [1]) | PRE Application ECHCG, percentage damage (five point scale) [2] | POST Application ALOMY, percentage damage (five point scale) [3] | PRE Application SOLNI, percentage damage (five point scale) (Solanum nigrum (SOLNI) [4]) | POST Application SETFA, percentage damage (five point scale) (Setaria faberi (SETFA) [5]) | POST Application ECHCG, percentage damage (five point scale) [6] | POST Application SOLNI, percentage damage (five point scale) (Solanum nigrum (SOLNI) [7]) | PRE Application ALOMY, percentage damage (five point scale) [8] | POST Application IPOHE, percentage damage (five point scale) [9] | POST Application AMARE, percentage damage (five point scale) [10] | PRE Application AMARE, percentage damage (five point scale) [11] | PRE Application IPOHE, percentage damage (five point scale) [12]

Cc1cc(C)cc(Cn2c(=O)c(C(=O)Nc3nnnn3C)nn(C)c2=O)c1 [Compound 1.074]
5 (5=80-100%): PRE Application SOLNI, percentage damage (five point scale) (Solanum nigrum (SOLNI) [4]) | POST Application SOLNI, percentage damage (five point scale) (Solanum nigrum (SOLNI) [7]) | PRE Application ALOMY, percentage damage (five point scale) [8] | POST Application AMARE, percentage damage (five point scale) [10] | PRE Application AMARE, percentage damage (five point scale) [11]
2 (2=20-39%): POST Application IPOHE, percentage damage (five point scale) [9]
3 (3=40-59%): POST Application ECHCG, percentage damage (five point scale) [6] | PRE Application IPOHE, percentage damage (five point scale) [12]
4 (4=60-79%): PRE Application ECHCG, percentage damage (five point scale) [2] | POST Application ALOMY, percentage damage (five point scale) [3]
1 (1=0-19%): PRE Application SETFA, percentage damage (five point scale) (Setaria faberi (SETFA) [1]) | POST Application SETFA, percentage damage (five point scale) (Setaria faberi (SETFA) [5])

Cn1nnnc1NC(=O)c1nn(C)c(=O)n(CC2CCOCC2)c1=O [Compound 1.095]
5 (5=80-100%): PRE Application SETFA, percentage damage (five point scale) (Setaria faberi (SETFA) [1]) | PRE Application ECHCG, percentage damage (five point scale) [2] | POST Application ALOMY, percentage damage (five point scale) [3] | PRE Application SOLNI, percentage damage (five point scale) (Solanum nigrum (SOLNI) [4]) | POST Application SETFA, percentage damage (five point scale) (Setaria faberi (SETFA) [5]) | POST Application ECHCG, percentage damage (five point scale) [6] | POST Application SOLNI, percentage damage (five point scale) (Solanum nigrum (SOLNI) [7]) | PRE Application ALOMY, percentage damage (five point scale) [8] | POST Application IPOHE, percentage damage (five point scale) [9] | POST Application AMARE, percentage damage (five point scale) [10] | PRE Application AMARE, percentage damage (five point scale) [11] | PRE Application IPOHE, percentage damage (five point scale) [12]

CCOc1cccc(-n2c(=O)c(C(=O)Nc3nnnn3C)nn(C)c2=O)c1 [Compound 1.034]
5 (5=80-100%): PRE Application SETFA, percentage damage (five point scale) (Setaria faberi (SETFA) [1]) | PRE Application ECHCG, percentage damage (five point scale) [2] | POST Application ALOMY, percentage damage (five point scale) [3] | PRE Application SOLNI, percentage damage (five point scale) (Solanum nigrum (SOLNI) [4]) | POST Application SETFA, percentage damage (five point scale) (Setaria faberi (SETFA) [5]) | POST Application ECHCG, percentage damage (five point scale) [6] | POST Application SOLNI, percentage damage (five point scale) (Solanum nigrum (SOLNI) [7]) | PRE Application ALOMY, percentage damage (five point scale) [8] | POST Application IPOHE, percentage damage (five point scale) [9] | POST Application AMARE, percentage damage (five point scale) [10] | PRE Application AMARE, percentage damage (five point scale) [11] | PRE Application IPOHE, percentage damage (five point scale) [12]

Reference: patent US20160009693A1, “HERBICIDAL COMPOUNDS” (SYNGENTA LIMITED, priority 2013, published 2016)
